Measured values as given in paper PMC5794198, “Inhibitors of Trypanosoma cruzi Sir2 related protein 1 as potential drugs against Chagas disease” (PLoS Neglected Tropical Diseases, 2018).
Entries after “also recorded” stand apart in the source; their conditions may differ. Where two headings read alike, the source gives them in different places.

Columns and labels:
[1] = system: T. cruzi amastigotes; assay: High-content screening assay on intracellular T. cruzi amastigotes; assay type: cell-based, Trypanosoma cruzi; conditions: for EC50: Y strain in C2C12 host cells, 72 h, read-out: Anti-T. cruzi Activity Amastigotes (EC50 ± SD)
Method: (§1) For the evaluation of the activity against T. cruzi amastigotes, high-content screening (HCS) was designed. In summary, 100 μL of host C2C12 cells (ATCC) were seeded in clear bottom black 96-well plates at a density of 2.5 x 10^4 cells/mL (2.5 × 10^3 cells/well). After 24 hrs, 50 μL of Y strain tissue culture-derived trypomastigotes were used to infect the host cells at a density of 7.5 x 10^5/mL (3.75 x 10^4 parasites/well). The parasites were allowed to infect for a 24 hr period, after which compounds were added in a volume of 50 μL. […] After 72 hrs of compound incubation, the wells were fixed with 4% paraformaldehyde for 15 to 30 mins. The plates were then washed once with deionized water and stained with a solution of DAPI (3 μM) for 1 hour. Plates were imaged in an INCell 2000 (GE Healthcare) high-content analyser by taking 16 pictures per well at 20 X objective amplification. Images were analysed with INCell Developer software (GE Healthcare) using the segmentation of host cell nuclei and parasite kinetoplast DNA. The measurement output used was the average number of parasites per cell calculated by the ratio of host cell nuclei/parasite kinetoplast DNA.
In this assay, the compounds are incubated for 72 hours with cells previously infected with wild-type trypomastigotes for 24 hours. The readout was done by comparing the average number of amastigotes per cell that developed by the end of the incubation period. The quality of the assay was statistically evaluated by the calculation of the z-factor [75], that represents the reliability of the assay in distinguishing positive controls confidently from negative controls. Varying from 0 to 1, z-factor values higher than 0.5 are considered acceptable for drug screening. The z-factor obtained was 0.68, validating the use of the assay (S3B Fig).

[2] = C2C12 host cell cytotoxicity (cell ratio) in HCS assay; assay type: cell-based, Mouse; conditions: mouse, cell ratio, 72 h; read-out: C2C12 Cytotoxicity (CC50 ± SD)
Method: as §1, with “After 24 hrs, 50 μL of Y strain tissue culture-derived trypomastigotes were used to infect the host cells at a density of 7.5 x 10^5/mL (3.75 x 10^4 parasites/well).” left out

[3] = system: C2C12 cells; assay: as above; assay type: cell-based, Mouse; conditions: for Selectivity Index: CC50 cell line (C2C12)/EC50 T. cruzi; for CC50: cell ratio, 72 h, read-out: C2C12 Cytotoxicity (CC50 ± SD)
Method: as §1, with “After 24 hrs, 50 μL of Y strain tissue culture-derived trypomastigotes were used to infect the host cells at a density of 7.5 x 10^5/mL (3.75 x 10^4 parasites/well).” left out

[4] = biological target: T1, human SIRT1 (Homo sapiens, UniProt Q96EB6); assay: hSIRT1 deacetylase inhibition (CycLex kit); assay type: biochemical; conditions: 10 µM, n=2, N.I. = no inhibition; for inhibition at 10 µM: read-out: hSIRT1 Inhibition at 10 µM (% ± SD)
T1 sequence (Q96EB6 1-747): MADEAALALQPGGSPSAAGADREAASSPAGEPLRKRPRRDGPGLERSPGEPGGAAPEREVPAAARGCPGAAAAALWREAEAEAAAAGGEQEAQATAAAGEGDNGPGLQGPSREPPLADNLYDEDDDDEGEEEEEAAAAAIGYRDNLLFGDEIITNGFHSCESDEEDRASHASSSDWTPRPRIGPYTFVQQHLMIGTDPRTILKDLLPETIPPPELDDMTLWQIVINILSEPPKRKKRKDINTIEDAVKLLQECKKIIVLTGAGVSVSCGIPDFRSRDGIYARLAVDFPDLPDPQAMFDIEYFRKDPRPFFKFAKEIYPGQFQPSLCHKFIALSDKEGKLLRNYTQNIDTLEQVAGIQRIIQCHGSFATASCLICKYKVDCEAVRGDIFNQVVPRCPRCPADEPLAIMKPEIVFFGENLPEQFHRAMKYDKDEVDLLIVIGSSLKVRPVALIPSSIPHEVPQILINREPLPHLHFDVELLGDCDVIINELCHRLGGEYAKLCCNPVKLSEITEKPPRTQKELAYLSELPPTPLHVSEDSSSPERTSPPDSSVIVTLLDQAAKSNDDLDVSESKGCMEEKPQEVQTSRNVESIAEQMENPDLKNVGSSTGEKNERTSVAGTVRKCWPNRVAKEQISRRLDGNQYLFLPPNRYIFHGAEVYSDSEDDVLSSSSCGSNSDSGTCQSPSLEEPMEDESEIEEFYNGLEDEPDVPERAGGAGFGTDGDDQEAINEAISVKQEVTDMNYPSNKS

[5] = biological target: TcSir2rp1 (Trypanosoma cruzi, UniProt Q4DVL9); assay: TcSir2rp1 NAD+-dependent deacetylase fluorimetric assay (CycLex kit); assay type: biochemical; conditions: for Inhibition of NAD+-dependent deacetylase activity of TcSir2rp1 / inhibition at 10 µM: single dose 10 μM, 200 μM NAD+, 10 μM peptide
Method: The deacetylase activity was measured using the commercial SIRT1/Sir2 Deacetylase Fluorometric Assay Kit (CycLex,Japan) according to the manufacturer’s recommendations. Briefly, fluorescence emission after digestion of deacetylated substrates by a lysine specific endopeptidase was measured in a fluorometric plate reader (Synergy HT, BioTek) with excitation and emission wavelengths set at 340 and 440 nm, respectively, every 30 seconds for 1 hour. The slope of the linear part of the reaction was calculated and used as readout of enzyme activity. […]
(§2) A variety of the bisnaphthalimidopropyl (BNIPs) derivatives, as well as the newly synthetized derivatives were evaluated as potential TcSir2rp1 inhibitors. The enzymatic reactions were performed using a commercially available CycLex SIRT1/Sir2 deacetylase fluorimetric kit (CycLex Co. Ltd., Nagano, Japan) in the absence and presence of the various inhibitors, 200 μM NAD^+ and 10 μM of peptide substrate as previously described.
as §2, with “µM” for “μM”

[6] = Solubility; assay type: physicochemical; conditions: limits the concentration tested
[7] = system: T. cruzi epimastigotes overexpressing TcSir2rp1 (OE) with the pTcINDEX; assay: microbe, parasite or virus in culture; assay type: cell-based; conditions: Trypanosoma cruzi, read-out: EC50 against T. cruzi epimastigotes OE
Method: For the generation of transgenic cell lines, 15 μg of the constructs were digested overnight (SpeI for the pTcINDEX construct; NotI for the knockout constructs), precipitated with sodium acetate / ethanol, and introduced into 1.5 x 10^7 epimastigote cells in the logarithmic phase of growth via transfection using an AMAXA Nucleofector II device (program V-33) with the Human T-cell nucleofector kit (Lonza). Parasites were suspended in fresh growth medium and incubated for 24-hrs to allow for the expression of drug selectable markers, prior to the addition of appropriate antibiotic (Blasticidin S (Thermo Fisher Scientific; 10 μg/mL); Hygromycin B (Formedium; 100 μg/mL); and Puromycin (Calbiochem; 5 μg/mL). Cells were then incubated for a further four- to six-weeks to allow for the selection of transgenic parasites and then genetically verified by PCR using ORF and drug selection primers.
The TcSir2rp1 open reading frame (TriTryp accession number TcCLB.508207.150) was amplified from CL-Brener genomic DNA using KOD polymerase (Novagen). The resulting PCR product encoding the full-length ORF was cloned directly into the T. cruzi expression vector, pTcINDEX [49], using NotI and BamHI restriction sites.
T. cruzi epimastigotes were seeded at 1.25 x 10^6 cells/mL in a 96-well plate in the presence of varying concentrations of test compounds. Following a 64-hour incubation, 15 μL of a resazurin solution (Sigma-Aldrich; 1.1 mg/mL in PBS). Following an additional 6-hr incubation, cell viability was determined by measuring the fluorescence of each culture with a BioTek FLX800 Fluorescence Microplate Reader (excitation and emission wavelengths of 540/535 nm and 590/610 nm, respectively) and associated Gen5 Reader Control 2.0 software. EC50 values were determined by nonlinear regression to a sigmoidal dose-response curve using GraFit software (Version 5.0, Erithacus Software). Each assay was performed in at least triplicate in parallel to the known trypanocidal agent nifurtimox.

TcSir2rp1, sequence (Q4DVL9 entry or part of it): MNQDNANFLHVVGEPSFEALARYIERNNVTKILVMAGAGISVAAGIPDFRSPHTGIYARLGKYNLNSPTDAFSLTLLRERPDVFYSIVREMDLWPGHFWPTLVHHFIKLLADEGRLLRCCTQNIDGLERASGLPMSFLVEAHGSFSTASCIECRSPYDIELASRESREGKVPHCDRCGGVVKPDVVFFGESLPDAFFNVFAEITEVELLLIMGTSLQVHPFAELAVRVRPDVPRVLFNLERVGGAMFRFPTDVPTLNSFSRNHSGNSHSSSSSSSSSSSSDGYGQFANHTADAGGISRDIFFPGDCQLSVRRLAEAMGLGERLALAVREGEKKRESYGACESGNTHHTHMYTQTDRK

| Compound | hSIRT1 Inhibition at 10 µM (% ± SD) [4] | inhibition at 10 µM [4] [%] | EC50 ([1]; Trypanosoma cruzi, C2C12, 72 h) [nM] | CC50 at 72 h [2] [nM] | Selectivity Index [3] | also measured |
| --- | --- | --- | --- | --- | --- | --- |
| O=C1c2cccc3cccc(c23)C(=O)N1CCCNCCCCNCCCN1C(=O)c2cccc3cccc(c23)C1=O [Compound 1] |  |  | 1710 ± 230 | 2910 ± 940 | 1.7 |  |
| O=C1c2cccc3cccc(c23)C(=O)N1CCCNCCCCCCCCNCCCN1C(=O)c2cccc3cccc(c23)C1=O [Compound 5] |  |  |  |  |  | Inhibition of NAD+-dependent deacetylase activity of TcSir2rp1 [5]: not active; also recorded: very little if any activity; Activity against amastigotes (primary screening) ([1]; single dose screening): very little if any activity |
| O=C1c2cccc3cccc(c23)C(=O)N1CCCNCCCCCCCCCCCCNCCCN1C(=O)c2cccc3cccc(c23)C1=O [Compound 8] |  |  | 1430 ± 100 | 1910 ± 60 | 1.3 | inhibition at 50 µM [5]: 31 ± 9%; Inhibition of NAD+-dependent deacetylase activity of TcSir2rp1 [5]: statistically significant inhibition |
| O=C1c2cccc3cccc(c23)C(=O)N1CCCNCCCNCCCCNCCCNCCCN1C(=O)c2cccc3cccc(c23)C1=O [Compound 10] |  |  |  |  |  | Solubility in assay (qualitative) [6]: poor solubility |
| C[N+]1(CCCN2C(=O)c3cccc4cccc(c34)C2=O)CCN(CCCN2C(=O)c3cccc4cccc(c34)C2=O)CC1 [Compound 12] | N.I. |  | 28700 ± 4090 | > 50000 | > 1.7 |  |
| O=C1c2cccc3c(Cl)ccc(c23)C(=O)N1CCCN1CCN(CCCN2C(=O)c3cccc4c(Cl)ccc(c34)C2=O)CC1 [Compound 13] |  | 15 ± 4 | 590 ± 230 | > 2500 |  | inhibition at 20 µM [5]: 48 ± 6%; Inhibition of T. cruzi enzyme relative to hSIRT1, fold higher ([5]; both at 10 μM): at least 3 fold; Inhibition of NAD+-dependent deacetylase activity of TcSir2rp1 [5]: statistically significant inhibition; inhibition at 10 µM [5]: 50 ± 8%; Solubility in assay (qualitative) [6]: low solubility |
| CC1CS(=O)(=O)CCN1/N=C/c1ccc([N+](=O)[O-])o1 (centres unmarked) [Nifurtimox, nifurtimox, reference compound] |  |  |  |  |  | EC50 [7]: 2240 ± 140 nM |
| CC(/C=C/C(=O)NO)=C\[C@@H](C)C(=O)c1ccc(N(C)C)cc1 [trichostatin A, reference compound] |  |  |  |  |  | TcSir2rp1 deacetylase activity still displayed ([5]; inhibitor at 1 μM): 77 ± 8% |

Further lines, with some results ahead:

| hSIRT1 Inhibition at 10 µM (% ± SD) [4] | inhibition at 10 µM [4] [%] | Compound | EC50 ([1]; Trypanosoma cruzi, C2C12, 72 h) [nM] | CC50 at 72 h [2] [nM] | Selectivity Index [3] | also measured |
| --- | --- | --- | --- | --- | --- | --- |
| 1 ± 1% |  | O=C1c2cccc3cccc(c23)C(=O)N1CCCNC1CCC(NCCCN2C(=O)c3cccc4cccc(c34)C2=O)CC1 (centres unmarked) [Compound 1a] |  |  | 1.4 | EC50 [1]: 6090 ± 140 nM; CC50 [3]: 8740 ± 1140 nM |
| 3 ± 4% |  | O=C1c2cccc3cccc(c23)C(=O)N1CCCNC1CCC(NCCCN2C(=O)c3cccc4cccc(c34)C2=O)CC1 (centres unmarked) [Compound 1b] |  |  | > 3.2 | EC50 [1]: 780 ± 120 nM; CC50 [3]: > 2500 nM |
| N.I. |  | O=C1c2cccc3cccc(c23)C(=O)N1CCCNc1ccc(NCCCN2C(=O)c3cccc4cccc(c34)C2=O)cc1 [Compound 1c] |  |  |  |  |
|  | 3 ± 4 | O=C1c2cccc3cccc(c23)C(=O)N1CCCN1CCC(CCCC2CCN(CCCN3C(=O)c4cccc5cccc(c45)C3=O)CC2)CC1 [Compound 6a] | 1450 ± 300 | 2880 ± 120 | 2.0 |  |
|  | 44 ± 8 | O=C1c2cccc3cccc(c23)C(=O)N1CCCNC1CCC(CC2CCC(NCCCN3C(=O)c4cccc5cccc(c45)C3=O)CC2)CC1 (centres unmarked) [Compound 6b] |  |  |  | inhibition at 10 µM [5]: 8 ± 5% |
|  | 8 ± 1 | O=C1c2cccc3cccc(c23)C(=O)N1CCCNc1ccc(Cc2ccc(NCCCN3C(=O)c4cccc5cccc(c45)C3=O)cc2)cc1 [Compound 6c] |  |  |  | Solubility in assay (qualitative) [6]: poor solubility |
| N.I. |  | O=C1c2cccc3cccc(c23)C(=O)N1CCCNCCCN1CCN(CCCNCCCN2C(=O)c3cccc4cccc(c34)C2=O)CC1 [Compound 7a] | 13600 ± 2900 | 19300 ± 5640 | 1.4 |  |
|  | 3 ± 4 | O=C1c2cccc3cccc(c23)C(=O)N1CCCNCCOCCOCCNCCCN1C(=O)c2cccc3cccc(c23)C1=O [Compound 9a] | 3430 ± 570 | 7370 ± 650 | 2.1 | inhibition at 50 µM [5]: 29 ± 4%; Inhibition of NAD+-dependent deacetylase activity of TcSir2rp1 [5]: statistically significant inhibition; inhibition at 10 µM [5]: 28 ± 13% |
